Legend:
[1] = target: 11-beta-hydroxysteroid dehydrogenase 1 (Homo sapiens, UniProt P28845); test: Inhibition of human 11beta-HSD1 expressed in CHO-K1 cells assessed as conversion of [3H]cortisone to [3H]cortisol by scintillation counting; type: cell-based
[2] = target: T1, 11-beta-hydroxysteroid dehydrogenase type 2 (Mus musculus, UniProt P51661); test: Inhibition of mouse 11beta-HSD2
T1 sequence (P51661 whole entry): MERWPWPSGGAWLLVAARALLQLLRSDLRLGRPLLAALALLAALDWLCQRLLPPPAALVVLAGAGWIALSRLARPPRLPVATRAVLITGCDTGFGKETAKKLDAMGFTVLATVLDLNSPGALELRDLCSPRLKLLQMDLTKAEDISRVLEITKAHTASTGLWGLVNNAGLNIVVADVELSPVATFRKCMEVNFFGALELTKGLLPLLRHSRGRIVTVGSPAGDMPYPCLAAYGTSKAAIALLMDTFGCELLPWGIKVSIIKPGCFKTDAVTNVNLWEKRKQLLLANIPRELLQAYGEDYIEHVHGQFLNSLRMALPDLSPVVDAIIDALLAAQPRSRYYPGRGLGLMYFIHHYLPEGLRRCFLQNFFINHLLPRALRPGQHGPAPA

[3] = target: T2, 11-beta-hydroxysteroid dehydrogenase type 2 (Homo sapiens, UniProt P80365); test: Inhibition of human 11beta-HSD2
T2 sequence (P80365 whole entry): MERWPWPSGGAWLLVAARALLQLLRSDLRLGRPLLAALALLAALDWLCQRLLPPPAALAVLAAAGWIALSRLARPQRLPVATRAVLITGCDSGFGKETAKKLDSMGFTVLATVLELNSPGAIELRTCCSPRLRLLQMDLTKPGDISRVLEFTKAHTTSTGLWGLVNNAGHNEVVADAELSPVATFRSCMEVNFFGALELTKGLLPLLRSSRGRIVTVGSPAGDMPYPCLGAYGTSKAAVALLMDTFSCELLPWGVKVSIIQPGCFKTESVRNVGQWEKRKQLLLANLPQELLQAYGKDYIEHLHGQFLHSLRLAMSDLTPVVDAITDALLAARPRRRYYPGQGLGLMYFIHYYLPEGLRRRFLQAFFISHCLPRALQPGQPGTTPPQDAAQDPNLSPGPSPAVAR

[4] = target: T3, Nuclear receptor subfamily 1 group I member 2 (Homo sapiens, UniProt O75469); test: Agonist activity at PXR at 10 uM; type: functional
T3 sequence (O75469 whole entry): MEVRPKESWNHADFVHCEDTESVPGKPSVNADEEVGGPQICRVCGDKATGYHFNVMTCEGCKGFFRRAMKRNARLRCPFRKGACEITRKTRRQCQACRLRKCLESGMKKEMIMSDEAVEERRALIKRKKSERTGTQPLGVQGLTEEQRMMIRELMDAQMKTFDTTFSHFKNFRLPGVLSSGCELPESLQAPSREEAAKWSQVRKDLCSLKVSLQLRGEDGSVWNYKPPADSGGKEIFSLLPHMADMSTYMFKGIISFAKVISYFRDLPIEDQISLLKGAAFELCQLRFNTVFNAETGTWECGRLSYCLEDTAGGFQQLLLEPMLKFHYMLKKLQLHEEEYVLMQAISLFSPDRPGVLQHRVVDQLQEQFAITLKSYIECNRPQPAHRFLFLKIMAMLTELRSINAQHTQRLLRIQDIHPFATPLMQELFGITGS

Mus musculus [5] = test: Inhibition of 11beta-HSD1 in ICR mouse assessed as conversion of [3H]cortisone to [3H]cortisol at 10 mg/kg, po after 4 hrs by scintillation counting; type: functional
[6] = target: T3, Nuclear receptor subfamily 1 group I member 2; test: Agonist activity at PXR; type: functional
Mus musculus [7] = test: Inhibition of 11beta-HSD1 in ICR mouse assessed as conversion of [3H]cortisone to [3H]cortisol at 10 mg/kg, po after 16 hrs by scintillation counting; type: functional
[8] = target: 11-beta-hydroxysteroid dehydrogenase 1 (Mus musculus, UniProt P50172); test: Inhibition of mouse 11beta-HSD1 expressed in CHO-K1 cells assessed as conversion of [3H]cortisone to [3H]cortisol by scintillation counting; type: cell-based
Sequence of 11-beta-hydroxysteroid dehydrogenase 1 (Mus musculus, UniProt P50172) (P50172 whole entry): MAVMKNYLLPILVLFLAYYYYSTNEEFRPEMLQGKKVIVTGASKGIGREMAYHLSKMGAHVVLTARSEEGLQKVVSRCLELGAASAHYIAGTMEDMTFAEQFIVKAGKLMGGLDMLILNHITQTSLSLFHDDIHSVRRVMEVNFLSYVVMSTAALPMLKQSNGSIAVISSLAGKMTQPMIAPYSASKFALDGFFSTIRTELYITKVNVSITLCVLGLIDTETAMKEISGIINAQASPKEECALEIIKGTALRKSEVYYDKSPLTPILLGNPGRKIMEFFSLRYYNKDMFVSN

[9] = Blood clearance in C57BL/6 mouse; type: ADME, organism-based
Cytochrome P450 2D6 = Cytochrome P450 2D6 (Homo sapiens, UniProt P10635); test: Inhibition of CYP2D6; type: ADME
Sequence of Cytochrome P450 2D6 (P10635 whole entry): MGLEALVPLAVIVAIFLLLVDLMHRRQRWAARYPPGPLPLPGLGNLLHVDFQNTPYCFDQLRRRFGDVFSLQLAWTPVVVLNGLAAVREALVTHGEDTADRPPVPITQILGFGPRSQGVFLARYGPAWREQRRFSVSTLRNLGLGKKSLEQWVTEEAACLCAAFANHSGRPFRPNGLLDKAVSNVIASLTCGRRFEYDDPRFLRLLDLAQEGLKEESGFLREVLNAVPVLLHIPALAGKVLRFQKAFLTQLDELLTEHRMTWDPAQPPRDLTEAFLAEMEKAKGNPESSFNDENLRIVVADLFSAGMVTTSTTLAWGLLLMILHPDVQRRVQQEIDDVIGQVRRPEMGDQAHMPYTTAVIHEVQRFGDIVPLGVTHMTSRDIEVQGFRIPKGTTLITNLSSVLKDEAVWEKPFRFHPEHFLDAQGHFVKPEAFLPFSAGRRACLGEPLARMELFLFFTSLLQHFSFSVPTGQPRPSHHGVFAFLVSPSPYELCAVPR

[10] = Oral bioavailability in C57BL/6 mouse; type: ADME, organism-based; details: in vivo
Cytochrome P450 3A4 = Cytochrome P450 3A4 (Homo sapiens, UniProt P08684); test: Inhibition of CYP3A4; type: ADME
Sequence of Cytochrome P450 3A4 (P08684 whole entry): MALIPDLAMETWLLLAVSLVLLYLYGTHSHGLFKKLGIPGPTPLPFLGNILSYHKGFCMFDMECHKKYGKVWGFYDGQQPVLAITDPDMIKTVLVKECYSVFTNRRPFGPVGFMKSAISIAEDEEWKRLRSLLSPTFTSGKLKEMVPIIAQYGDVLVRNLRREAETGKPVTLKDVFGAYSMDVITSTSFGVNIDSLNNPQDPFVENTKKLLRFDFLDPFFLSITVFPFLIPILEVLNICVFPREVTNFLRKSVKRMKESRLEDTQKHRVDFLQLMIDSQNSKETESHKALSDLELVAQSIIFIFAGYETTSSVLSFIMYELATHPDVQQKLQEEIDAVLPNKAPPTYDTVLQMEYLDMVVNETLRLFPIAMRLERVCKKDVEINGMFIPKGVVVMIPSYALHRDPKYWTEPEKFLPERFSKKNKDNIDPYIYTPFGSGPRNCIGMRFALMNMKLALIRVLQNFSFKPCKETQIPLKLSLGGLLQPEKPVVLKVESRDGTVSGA

Cytochrome P450 2C9 = Cytochrome P450 2C9 (Homo sapiens, UniProt P11712); test: Inhibition of CYP2C9; type: ADME
Sequence of Cytochrome P450 2C9 (P11712 whole entry): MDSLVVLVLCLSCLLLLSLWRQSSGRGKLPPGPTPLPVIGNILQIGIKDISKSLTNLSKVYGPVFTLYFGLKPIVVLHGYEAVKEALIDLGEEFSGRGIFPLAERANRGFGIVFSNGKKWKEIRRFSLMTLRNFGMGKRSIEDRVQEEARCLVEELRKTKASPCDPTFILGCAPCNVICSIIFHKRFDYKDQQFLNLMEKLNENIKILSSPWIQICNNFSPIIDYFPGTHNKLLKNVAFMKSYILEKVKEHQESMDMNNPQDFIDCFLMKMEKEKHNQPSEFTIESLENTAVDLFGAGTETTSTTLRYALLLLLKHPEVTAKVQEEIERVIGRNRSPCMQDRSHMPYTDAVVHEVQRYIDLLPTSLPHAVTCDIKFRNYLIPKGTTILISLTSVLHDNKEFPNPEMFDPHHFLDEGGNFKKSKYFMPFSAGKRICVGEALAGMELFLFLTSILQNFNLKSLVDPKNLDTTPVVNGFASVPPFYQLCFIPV

[11] = Half life in C57BL/6 mouse; type: ADME, organism-based; details: in vivo
Mus musculus [12] = test: Inhibition of 11beta-HSD1 in ICR mouse assessed as conversion of [3H]cortisone to [3H]cortisol at 10 mg/kg, po after 1 hr by scintillation counting; type: functional

Sequence of 11-beta-hydroxysteroid dehydrogenase 1 (Homo sapiens, UniProt P28845) (P28845 whole entry): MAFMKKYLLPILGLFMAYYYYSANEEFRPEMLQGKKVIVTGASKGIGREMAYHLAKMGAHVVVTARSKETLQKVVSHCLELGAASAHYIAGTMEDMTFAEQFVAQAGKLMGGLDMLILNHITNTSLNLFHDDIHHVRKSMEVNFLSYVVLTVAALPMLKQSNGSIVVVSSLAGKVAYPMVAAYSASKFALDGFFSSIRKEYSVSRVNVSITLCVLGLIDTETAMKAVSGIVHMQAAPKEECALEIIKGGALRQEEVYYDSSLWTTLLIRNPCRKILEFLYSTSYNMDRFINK

Cn1c(-c2ccc(-c3cncnc3)cc2)nnc1C1(c2ccc(Cl)cc2)CCC1
IC50 [1]: 1.5 nM
IC50 [2]: > 4000 nM
IC50 [3]: > 4000 nM
Activity [4]: 7%
inhibition in vivo at 10 mg/kg (Mus musculus [5]): 46%
EC50 [6]: > 30000 nM
inhibition in vivo at 10 mg/kg (Mus musculus [7]): -4%
IC50 [8]: 2.6 nM

Cn1c(-c2ccc(-c3cnc(N)nc3)cc2)nnc1C1(c2ccc(Cl)cc2)CCC1
IC50 [1]: 2.2 nM
IC50 [2]: > 4000 nM
IC50 [3]: > 4000 nM
Activity [4]: 3%
inhibition in vivo at 10 mg/kg (Mus musculus [5]): 34%
EC50 [6]: > 30000 nM
inhibition in vivo at 10 mg/kg (Mus musculus [7]): -5%
IC50 [8]: 2.2 nM

COc1ncc(-c2ccc(-c3nnc(C4(c5ccc(Cl)cc5)CCC4)n3C)cc2)c(OC)n1
IC50 [1]: 14 nM
IC50 [2]: > 4000 nM
IC50 [3]: > 4000 nM
Activity [4]: 35%
inhibition in vivo at 10 mg/kg (Mus musculus [5]): 59%
EC50 [6]: > 30000 nM
inhibition in vivo at 10 mg/kg (Mus musculus [7]): 10%
IC50 [8]: 2 nM

Cn1c(-c2ccc(-c3cnccn3)cc2)nnc1C1(c2ccc(Cl)cc2)CCC1
IC50 [1]: 2.3 nM
IC50 [2]: > 4000 nM
IC50 [3]: > 4000 nM
Activity [4]: 23%
inhibition in vivo at 10 mg/kg (Mus musculus [5]): 93%
clearance [9]: 54 mL/min/kg
EC50 [6]: > 30000 nM
IC50 (Cytochrome P450 2D6): 16000 nM
bioavailability [10]: 30%
inhibition in vivo at 10 mg/kg (Mus musculus [7]): 79%
IC50 [8]: < 1 nM
IC50 (Cytochrome P450 3A4): 10000 nM
IC50 (Cytochrome P450 2C9): 13000 nM
half-life [11]: 0.7 h

Cn1c(-c2ccc(-c3cc(=O)[nH]cn3)cc2)nnc1C1(c2ccc(Cl)cc2)CCC1
IC50 [1]: 8.8 nM
IC50 [2]: > 4000 nM
IC50 [3]: > 4000 nM
Activity [4]: 15%
inhibition in vivo at 10 mg/kg (Mus musculus [5]): 26%
EC50 [6]: > 30000 nM
inhibition in vivo at 10 mg/kg (Mus musculus [7]): 14%
IC50 [8]: 2.8 nM

Cn1c(-c2ccc(-c3ccc(Cl)nn3)cc2)nnc1C1(c2ccc(Cl)cc2)CCC1
IC50 [1]: 1.5 nM
IC50 [2]: > 4000 nM
IC50 [3]: > 4000 nM
Activity [4]: 14%
inhibition in vivo at 10 mg/kg (Mus musculus [5]): 40%
EC50 [6]: > 30000 nM
inhibition in vivo at 10 mg/kg (Mus musculus [7]): -7%
IC50 [8]: 1.5 nM

Cc1noc(C)c1-c1ccc(-c2nnc(C3(c4ccc(Cl)cc4)CCC3)n2C)cc1
IC50 [1]: 4.8 nM
IC50 [2]: > 4000 nM
IC50 [3]: > 4000 nM
Activity [4]: 26%
inhibition in vivo at 10 mg/kg (Mus musculus [5]): 63%
EC50 [6]: > 30000 nM
inhibition in vivo at 10 mg/kg (Mus musculus [7]): 9%
IC50 [8]: 3.4 nM

Cn1c(-c2ccc(-c3ccon3)cc2)nnc1C1(c2ccc(Cl)cc2)CCC1
IC50 [1]: 11 nM
IC50 [2]: > 4000 nM
IC50 [3]: > 4000 nM
Activity [4]: 35%
inhibition in vivo at 10 mg/kg (Mus musculus [5]): 95%
EC50 [6]: > 30000 nM
inhibition in vivo at 10 mg/kg (Mus musculus [7]): 67%
IC50 [8]: 6 nM

Cn1c(-c2ccc(-c3cccnc3)cc2F)nnc1C1(c2ccc(Cl)cc2)CCC1
IC50 [1]: 1.8 nM
IC50 [2]: > 4000 nM
IC50 [3]: > 4000 nM
Activity [4]: 43%
inhibition in vivo at 10 mg/kg (Mus musculus [5]): 86%
EC50 [6]: > 30000 nM
inhibition in vivo at 10 mg/kg (Mus musculus [7]): 15%
IC50 [8]: 1.6 nM

COc1cc(-c2cccnc2)ccc1-c1nnc(C2(c3ccc(Cl)cc3)CCC2)n1C
IC50 [1]: 1.5 nM
IC50 [2]: > 4000 nM
IC50 [3]: > 4000 nM
Activity [4]: 65%
inhibition in vivo at 10 mg/kg (Mus musculus [5]): 82%
EC50 [6]: 4600 nM
inhibition in vivo at 10 mg/kg (Mus musculus [7]): 21%
IC50 [8]: 0.75 nM

Cn1c(-c2ccc(-c3cccnc3)cc2O)nnc1C1(c2ccc(Cl)cc2)CCC1
IC50 [1]: 38 nM
IC50 [2]: > 4000 nM
IC50 [3]: > 4000 nM
Activity [4]: 45%
inhibition in vivo at 10 mg/kg (Mus musculus [5]): 59%
EC50 [6]: > 30000 nM
inhibition in vivo at 10 mg/kg (Mus musculus [7]): 10%
IC50 [8]: 1 nM

Cn1c(-c2ccc(-c3cnccn3)cc2F)nnc1C1(c2ccc(Cl)cc2)CCC1
IC50 [1]: 2.8 nM
IC50 [2]: > 4000 nM
IC50 [3]: > 4000 nM
Activity [4]: 74%
inhibition in vivo at 10 mg/kg (Mus musculus [5]): 91%
EC50 [6]: 4800 nM
inhibition in vivo at 10 mg/kg (Mus musculus [7]): 81%
IC50 [8]: 1.7 nM

Cn1c(-c2ccc(-c3cnccn3)cc2OC(F)F)nnc1C1(c2ccc(Cl)cc2)CCC1
IC50 [1]: 3.7 nM
IC50 [2]: > 4000 nM
IC50 [3]: > 4000 nM
Activity [4]: 45%
inhibition in vivo at 10 mg/kg (Mus musculus [5]): 88%
EC50 [6]: > 30000 nM
inhibition in vivo at 10 mg/kg (Mus musculus [7]): 14%
IC50 [8]: 1 nM

Cn1c(-c2ccc(C(N)=O)cc2C(N)=O)nnc1C1(c2ccc(Cl)cc2)CCC1
IC50 [1]: 2.2 nM
IC50 [2]: > 4000 nM
IC50 [3]: > 4000 nM
Activity [4]: -7%
inhibition in vivo at 10 mg/kg (Mus musculus [5]): -11%
EC50 [6]: > 30000 nM
inhibition in vivo at 10 mg/kg (Mus musculus [7]): 0%
IC50 [8]: 150 nM

Cn1c(-c2ccc(-c3cnccn3)cc2Cl)nnc1C1(c2ccc(Cl)cc2)CC(F)C1 (stereo not drawn)
IC50 [1]: 5.5 nM
IC50 [2]: > 4000 nM
IC50 [3]: > 4000 nM
Activity [4]: 23%
inhibition in vivo at 10 mg/kg (Mus musculus [5]): 95%
clearance [9]: 5 mL/min/kg
EC50 [6]: > 30000 nM
IC50 (Cytochrome P450 2D6): 25000 nM
bioavailability [10]: 96%
inhibition in vivo at 10 mg/kg (Mus musculus [7]): 80%
IC50 [8]: 2.3 nM
IC50 (Cytochrome P450 3A4): 36000 nM
IC50 (Cytochrome P450 2C9): 26000 nM
half-life [11]: 6.8 h

C1CCCn2c(nnc2C23CC4CC(CC(C4)C2)C3)CC1
IC50 [1]: 7.8 nM
IC50 [2]: > 4000 nM
inhibition in vivo at 10 mg/kg (Mus musculus [12]): 31%
IC50 [3]: > 4000 nM
inhibition in vivo at 10 mg/kg (Mus musculus [5]): 21%
IC50 [8]: 98 nM

Reference: ChEMBL document CHEMBL1759971, “Substituted phenyl triazoles as selective inhibitors of 11β-Hydroxysteroid Dehydrogenase Type 1” (Bioorg Med Chem Lett, 2011)
